{"source": "patent US20100080786A1", "about": "“Phenyl or Pyridinyl Substituted Indazoles Derivatives” (priority 2008, published 2010)", "data": [{"target": "T1, Human Glucocorticoid Receptor (GR) (Homo sapiens, UniProt P04150)", "T1 construct": "The full length GR was diluted to a final concentration of 3.3% (0.495 mg/ml) in assay buffer", "T1 sequence (P04150 1-777)": "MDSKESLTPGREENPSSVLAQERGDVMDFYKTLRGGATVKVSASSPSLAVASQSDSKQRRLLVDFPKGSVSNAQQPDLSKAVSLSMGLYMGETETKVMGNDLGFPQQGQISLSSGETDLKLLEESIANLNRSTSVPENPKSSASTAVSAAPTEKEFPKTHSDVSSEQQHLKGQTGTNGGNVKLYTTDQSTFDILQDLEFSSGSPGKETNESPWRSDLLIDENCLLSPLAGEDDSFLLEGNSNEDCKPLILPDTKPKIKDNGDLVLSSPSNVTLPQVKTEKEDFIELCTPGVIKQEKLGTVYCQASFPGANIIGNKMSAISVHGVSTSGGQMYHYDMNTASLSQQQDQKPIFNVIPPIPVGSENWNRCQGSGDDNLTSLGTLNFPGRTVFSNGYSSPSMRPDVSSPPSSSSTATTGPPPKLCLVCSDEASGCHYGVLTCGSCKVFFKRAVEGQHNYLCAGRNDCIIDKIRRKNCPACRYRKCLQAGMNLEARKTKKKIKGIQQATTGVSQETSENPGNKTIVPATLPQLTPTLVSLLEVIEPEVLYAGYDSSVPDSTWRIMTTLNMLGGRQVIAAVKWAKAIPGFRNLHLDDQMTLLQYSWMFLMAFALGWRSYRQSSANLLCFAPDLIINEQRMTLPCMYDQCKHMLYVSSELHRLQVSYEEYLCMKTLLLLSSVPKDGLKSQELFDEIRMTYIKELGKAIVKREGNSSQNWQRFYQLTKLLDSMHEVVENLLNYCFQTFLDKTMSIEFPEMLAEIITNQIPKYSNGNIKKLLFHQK", "experiment": "Human Glucocorticoid Receptor (GR) radioligand binding assay (3H-dexamethasone competition)", "conditions": "full length GR; 7 nM 3H-dexamethasone; 2 h at room temperature", "procedure": "Human Glucocorticoid Receptor (GR) Assay\nThe radioligand GR binding assay is based on a competition assay using ^3H-labeled Dexamethasone. Dexamethasone is known to bind in the ligand binding domain of GR and compete for binding with endogenous ligands like e.g. cortisol (Necela, 2003). In the GR radioligand binding assay, test compounds were serially diluted in semi-log steps (10 concentrations) with a final concentration of 10 μM. Test compounds (1 μL) and controls (1 μL) in 100% DMSO were added to 96 Greiner V-bottom polypropylene plates. 0% control was 6.7% DMSO (final concentration in assay) and 100% control was 6.7 μM Dexamethasone.\nThe full length GR was diluted to a final concentration of 3.3% (0.495 mg/ml) in assay buffer (20 mM Tris-HCl, 1 mM EDTA, 10% (w/v) Glycerol, 20 mM Sodium molybdate, pH 7.4). 45 μL of GR was added to each well and the plates were incubated for 15 min at room temperature.\n^3H-dexamethasone solution was diluted to a concentration of 70 nM in assay buffer (7 nM final assay concentration) and 5 μL was added to each well. The samples were mixed for 5 min using a plate shaker at 700 rpm, before incubation for 2 h at room temperature.\n50 μL ice-cold charcoal solution (pH 7.4:2% Charcoal, 0.2% Dextran T70 in 20 mM Tris-HCl, 1 mM EDTA and 20 mM Sodium molybdate) was added to each well and the samples were mixed on plate shaker for 5 minutes.\nThe plate was then centrifuged for 1.5 min at 1500 rpm, the samples (80 μL) were is transferred from each well to a filter plate (Millipore, 0.45 μm, MHVBN45) on a vacuum manifold and then collected into new plates (Greiner, 96 well white/transparent, 655095). The filter plate was washed once with 20 μl of water and then 100 μL of scintillation liquid was added to each well and mixed by incubation on plate shaker for 5 min. Radioactivity was measured in a 1450 Microbeta Trilux Reader (Wallac) counting cpm for 2 minutes per well. The data obtained from each replicate experiment were analysed using the software ActivityBase, version 5.4.3 (ID Business Solutions Ltd) and IC50 values were calculated. Ref: Necela, B M, Cidlowski, J A, Trends Pharmacol Sci, 24: 58, 2003", "units": {"IC50": "nM"}, "values": [{"compound": "C[C@H](NC(=O)C(N)=O)[C@H](Oc1ccc2c(cnn2-c2cccc(C(=O)N3CCC[C@@H]3C(N)=O)c2)c1)c1ccccc1", "note": "[Example 2, N-[(1S,2R)-2-{[1-(3-{[(2R)-2-carbamoylpyrrolidin-1-yl]carbonyl}phenyl)-1H-indazol-5-yl]oxy}-1-methyl-2-phenylethyl]ethanediamide]", "IC50": 19.9}, {"compound": "C[C@H](NC(=O)C(C)(F)F)[C@H](Oc1ccc2c(cnn2-c2cccc(C(=O)NCCO)c2)c1)c1ccccc1", "note": "[Example 3, 3-[5-({(1R,2S)-2-[(2,2-difluoropropanoyl)amino]-1-phenylpropyl}oxy)-1H-indazol-1-yl]-N-(2-hydroxyethyl)benzamide]", "IC50": 1.69}, {"compound": "C[C@H](NC(=O)C(C)(F)F)[C@H](Oc1ccc2c(cnn2-c2cccc(C(=O)NCC(N)=O)c2)c1)c1ccccc1", "note": "[Example 4, N-(2-amino-2-oxoethyl)-3-[5-({(1R,2S)-2-[(2,2-difluoropropanoyl)amino]-1-phenylpropyl}oxy)-1H-indazol-1-yl]benzamide]", "IC50": 1.61}, {"compound": "C[C@H](NC(=O)c1cccc(-n2ncc3cc(O[C@H](c4ccccc4)[C@H](C)NC(=O)C(C)(F)F)ccc32)c1)C(N)=O", "note": "[Example 5, N-[(1S)-2-amino-1-methyl-2-oxoethyl]-3-[5-({(1R,2S)-2-[(2,2-difluoropropanoyl)amino]-1-phenylpropyl}oxy)-1H-indazol-1-yl]benzamide]", "IC50": 1.93}, {"compound": "CC(=O)NCCNC(=O)c1cccc(-n2ncc3cc(O[C@H](c4ccccc4)[C@H](C)NC(=O)C(C)(F)F)ccc32)c1", "note": "[Example 6, N-[2-(acetylamino)ethyl]-3-[5-({(1R,2S)-2-[(2,2-difluoropropanoyl)amino]-1-phenylpropyl}oxy)-1H-indazol-1-yl]benzamide]", "IC50": 5.06}, {"compound": "C[C@H](NC(=O)C(C)(F)F)[C@H](Oc1ccc2c(cnn2-c2cccc(C(=O)NCCN3CCNC3=O)c2)c1)c1ccccc1", "note": "[Example 7, 3-[5-({(1R,2S)-2-[(2,2-difluoropropanoyl)amino]-1-phenylpropyl}oxy)-1H-indazol-1-yl]-N-[2-(2-oxoimidazolidin-1-yl)ethyl]benzamide]", "IC50": 16.9}, {"compound": "C[C@H](NC(=O)C(C)(F)F)[C@H](Oc1ccc2c(cnn2-c2cccc(C(=O)N3CCC[C@@H]3CO)c2)c1)c1ccccc1", "note": "[Example 8, 2,2-Difluoro-N-[(1S,2R)-2-{[1-(3-{[(2R)-2-(hydroxymethyl)pyrrolidin-1-yl]carbonyl}phenyl)-1H-indazol-5-yl]oxy}-1-methyl-2-phenylethyl]propanamide]", "IC50": 6.88}, {"compound": "C[C@H](NC(=O)C(C)(F)F)[C@H](Oc1ccc2c(cnn2-c2cccc(C(=O)N3CC[C@@H](O)C3)c2)c1)c1ccccc1", "note": "[Example 9, 2,2-Difluoro-N-[(1S,2R)-2-{[1-(3-{[(3R)-3-hydroxypyrrolidin-1-yl]carbonyl}phenyl)-1H-indazol-5-yl]oxy}-1-methyl-2-phenylethyl]propanamide]", "IC50": 5.65}, {"compound": "C[C@H](NC(=O)C(C)(F)F)[C@H](Oc1ccc2c(cnn2-c2cccc(C(=O)N3CCNC(=O)C3)c2)c1)c1ccccc1", "note": "[Example 12, 2,2-Difluoro-N-{(1S,2R)-1-methyl-2-[(1-{3-[(3-oxopiperazin-1-yl)carbonyl]phenyl}-1H-indazol-5-yl)oxy]-2-phenylethyl}propanamide]", "IC50": 2.54}, {"compound": "C[C@H](NC(=O)C(C)(F)F)[C@H](Oc1ccc2c(cnn2-c2cccc(C(=O)NCCN3CCCC3=O)c2)c1)c1ccccc1", "note": "[Example 13, 3-[5-({(1R,2S)-2-[(2,2-difluoropropanoyl)amino]-1-phenylpropyl}oxy)-1H-indazol-1-yl]-N-[2-(2-oxopyrrolidin-1-yl)ethyl]benzamide]", "IC50": 38.4}, {"compound": "C[C@H](NC(=O)C(C)(F)F)[C@H](Oc1ccc2c(cnn2-c2cccc(C(=O)NCCN3C(=O)OC(C)(C)C3=O)c2)c1)c1ccccc1", "note": "[Example 14, 3-[5-({(1R,2S)-2-[(2,2-difluoropropanoyl)amino]-1-phenylpropyl}oxy)-1H-indazol-1-yl]-N-[2-(5,5-dimethyl-2,4-dioxo-1,3-oxazolidin-3-yl)ethyl]benzamide]", "IC50": 40.2}, {"compound": "C[C@H](NC(=O)C(C)(F)F)[C@H](Oc1ccc2c(cnn2-c2cccc(C(=O)NCc3n[nH]c4ccccc34)c2)c1)c1ccccc1", "note": "[Example 16, 3-[5-({(1R,2S)-2-[(2,2-difluoropropanoyl)amino]-1-phenylpropyl}oxy)-1H-indazol-1-yl]-N-(1H-indazol-3-ylmethyl)benzamide]", "IC50": 42.4}, {"compound": "C[C@H](NC(=O)C(C)(F)F)[C@H](Oc1ccc2c(cnn2-c2cccc(C(=O)N[C@@H](C(N)=O)c3ccccc3)c2)c1)c1ccccc1", "note": "[Example 17, N-[(1R)-2-amino-2-oxo-1-phenylethyl]-3-[5-({(1R,2S)-2-[(2,2-difluoropropanoyl)amino]-1phenylpropyl}oxy)-1H-indazol-1-yl]benzamide]", "IC50": 3.55}, {"compound": "C[C@H](NC(=O)C(C)(F)F)[C@H](Oc1ccc2c(cnn2-c2cccc(C(=O)N(C)CC(N)=O)c2)c1)c1ccccc1", "note": "[Example 18]", "IC50": 4.22}, {"compound": "C[C@H](NC(=O)C(C)(F)F)[C@H](Oc1ccc2c(cnn2-c2cccc(C(=O)NCCC(N)=O)c2)c1)c1ccccc1", "note": "[Example 19, N-(3-amino-3-oxopropyl)-3-[5-({(1R,2S)-2-[(2,2-difluoropropanoyl)amino]-1-phenylpropyl}oxy)-1H-indazol-1-yl]benzamide]", "IC50": 2.29}, {"compound": "C[C@H](NC(=O)C(C)(F)F)[C@H](Oc1ccc2c(cnn2-c2cccc(C(=O)N3C[C@H](O)C[C@H]3C(N)=O)c2)c1)c1ccccc1", "note": "[Example 20, (4R)-1-({3-[5-({(1R,2S)-2-[(2,2-difluoropropanoyl)amino]-1-phenylpropyl}oxy)-1H-indazol-1-yl]phenyl}carbonyl)-4-hydroxy-L-prolinamide]", "IC50": 75.9}, {"compound": "C[C@H](NC(=O)C1(C#N)CC1)[C@H](Oc1ccc2c(cnn2-c2cccc(C(=O)N3CCC[C@@H]3C(N)=O)c2)c1)c1ccccc1", "note": "[Example 21, 1-{[3-(5-{[(1R,2S)-2-{-[1(1-cyanocyclopropyl)carbonyl]amino}-1-phenylpropyl]oxy}-1H-indazol-1-yl)phenyl]carbonyl}-D-prolinamide]", "IC50": 2.91}, {"compound": "COc1ccc([C@@H](Oc2ccc3c(cnn3-c3cccc(C(=O)NC4CCCC4)c3)c2)[C@H](C)NC(=O)C(C)(F)F)cn1", "note": "[Example 22, N-cyclopentyl-3-(5-{[(1R,2S)-2-[(2,2-difluoropropanoyl)amino]-1-(6-methoxypyridin-3-yl)propyl]oxy}-1H-indazol-1-yl)benzamide]", "IC50": 1.37}, {"compound": "COc1ccc([C@@H](Oc2ccc3c(cnn3-c3cccc(C(=O)Nc4cccnc4)c3)c2)[C@H](C)NC(=O)C(C)(F)F)cn1", "note": "[Example 23, 3-(5-{[(1R,2S)-2-[(2,2-difluoropropanoyl)amino]-1-(6-methoxypyridin-3-yl)propyl]oxy}-1H-indazol-1-yl)-N-(pyridin-3-yl)benzamide]", "IC50": 0.86}, {"compound": "COc1ccc([C@@H](Oc2ccc3c(cnn3-c3cccc(C(=O)NC4CCS(=O)(=O)C4)c3)c2)[C@H](C)NC(=O)C(C)(F)F)cn1", "note": "(stereo partly drawn) [Example 24, 3-(5-{[(1R,2S)-2-[(2,2-difluoropropanoyl)amino]-1-(6-methoxypyridin-3-yl)propyl]oxy}-1H-indazol-1-yl)-N-(1,1-dioxidotetrahydrothiophen-3-yl)benzamide]", "IC50": 4.46}, {"compound": "COc1ccc([C@@H](Oc2ccc3c(cnn3-c3cccc(C(=O)NC4CCOC4)c3)c2)[C@H](C)NC(=O)C(C)(F)F)cn1", "note": "(stereo partly drawn) [Example 25, 3-(5-{[(1R,2S)-2-[(2,2-difluoropropanoyl)amino]-1-(6-methoxypyridin-3-yl)propyl]oxy}-1H-indazol-1-yl)-N-(tetrahydrofuran-3-yl)benzamide]", "IC50": 2.99}]}]}
